Data reported in patent US12521356B2, “Compositions and methods for treating pain, inflammation, infection, malaria, and sepsis” (Duke University, priority 2018, dated 2026).
Read-outs that look alike come from different tables or passages of the source.

Assays:
[1] = system: peritoneal macrophages (pMΦ); assay: Phagocytosis assay with fluorescence-labeled zymosan particles in peritoneal macrophages; format: cell-based, mouse
Experimental: (§1) Peritoneal macrophage culture. Peritoneal macrophages were collected by peritoneal lavage with 10 ml warm PBS containing of 1 mM EDTA. Cells were incubated in DMEM supplemented with 10% FBS at 37° C. for 2 h in petri dish and washed with PBS to eliminate non-adherent cells. The adherent cells were used as peritoneal macrophages. Peritoneal macrophages were used after 3 days of culture.
Phagocytosis assay. The phagocytosis assay was modified from a previously described protocol (Sommer C, and Kress M. NeurosciLett. 2004, 361, 184-187). pHrodo® Red Zymosan Bioparticles (diameter, 3 μm, Thermo scientific, Catalog: P35364) were rinsed and reconstituted in RPMI medium. Particles were centrifuged (1 min at 100 g) onto adherent peritoneal macrophages at a ratio of 10:1 to synchronize binding and internalization. After 30 min incubation at 37° C., non-adherent beads were removed with cold PBS and cells were fixed with 2% formalin. Four optic fields were photographed with epifluorescence microscopy. Quantification of zymosan particles ingested by MΦ was conducted on at least 200 macrophages/condition/well, and triplicates were included for statistical analysis.
We investigated whether iCa^2+ increases would trigger phagocytosis of pathogens such as zymosan by macrophages. Zymosan is a well-studied pathogen and activates TLR2 to trigger inflammation and inflammatory pain in rodents after intraplantar injection. We tested phagocytosis in pMΦ using fluorescence-labeled zymosan particles.

[2] = biological target: T1, GPR37 (Mus musculus, UniProt Q9QY42); assay: Ca2+ imaging (Fluo-4AM) in peritoneal macrophages (pMΦ) from WT and Gpr37−/− mice; format: cell-based; conditions: PTX 1 μg/mL, 16 h; pMΦ
T1 sequence (Q9QY42 27-600): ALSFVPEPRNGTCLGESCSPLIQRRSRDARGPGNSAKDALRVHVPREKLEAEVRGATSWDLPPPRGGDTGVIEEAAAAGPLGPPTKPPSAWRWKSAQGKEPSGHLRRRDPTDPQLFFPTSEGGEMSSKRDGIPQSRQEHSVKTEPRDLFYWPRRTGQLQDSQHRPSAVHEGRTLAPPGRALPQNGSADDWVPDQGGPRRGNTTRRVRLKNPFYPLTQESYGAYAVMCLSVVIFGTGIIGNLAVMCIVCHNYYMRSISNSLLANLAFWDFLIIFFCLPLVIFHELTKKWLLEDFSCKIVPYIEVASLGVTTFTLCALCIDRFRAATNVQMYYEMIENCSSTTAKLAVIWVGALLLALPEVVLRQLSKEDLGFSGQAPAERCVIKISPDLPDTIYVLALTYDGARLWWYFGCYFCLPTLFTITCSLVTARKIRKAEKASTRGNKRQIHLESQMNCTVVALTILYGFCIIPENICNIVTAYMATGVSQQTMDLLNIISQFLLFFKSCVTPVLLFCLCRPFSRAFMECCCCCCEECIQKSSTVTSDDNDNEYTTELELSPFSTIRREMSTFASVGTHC
Experimental: as §1
(§2) Calcium imaging. HEK 293 cells, with or without transfection of Gpr37, GPR32, ChemR23 or ALX1 cDNA, were loaded with 5 μM Fura-2AM (Invitrogen) for 1 hour and then were resuspended in normal external buffer (140 NaCl, 5 KCl, 2 CaCl2, 2 MgCl2, 10 HEPES, in mM, titrated to pH 7.4 with NaOH) or external Ca^2+-free buffer (140 NaCl, 2 MgCl2, 5 EGTA, 10 HEPES, in mM, titrated to pH 7.4 with NaOH). Peritoneal macrophages, collected from WT and Gpr37 KO mice, were loaded with 5 μM […] (Invitrogen) for 1 hour and then were resuspended in normal external buffer. Images of the HEK 293 cells and macrophages with the excitation wavelength of 340 nm and 380 nm were captured with a cooled Digital CMOS camera (ORCA-Flash 4.0, Hamamatsu Photonics K.K, Japan). The ratio of fluorescence intensity of the two wavelengths in each experiment was analyzed using MetaFluor (Molecular Devices). The Shutter speed and wavelength was controlled by Lambda DG-4 system (Sutter instrument Co., Novato, CA). Values from each of the experiments were normalized to the baseline ratio of 340/380 nm.
(§3) Next, we conducted GPR37-mediated Ca^2+ imaging in native pMΦ from WT and Gpr37^−/− mice using Fluo-4AM as a Ca^2+ indicator, since this dye works better than Fura-2AM for pMΦ. […] As compared to iCa^2+ increase in GPR37-expressing HEK293 cells, NPD1 trigger a slow-onset but more persistent Ca^2+ response in pMΦ (FIG. 2B and FIG. 2G). A relatively rapid calcium response in HEK293 cells may result from over-expression of GPR37. A sustained iCa^2+ increase in pMΦ may result from the expression of transient receptor potential (TRP) ion channels in these immune cells. It is noteworthy that macrophages express TRPV2 or TRPM2, which are involved in phagocytosis during bacterial infection. […] NPD1-triggered iCa^2+ increase in pMΦ is also Gi-dependent, since PTX blocked this increase (FIG. 2H). For comparison, ATP-evoked iCa^2+ increase was not altered in GPR37-deficient pMΦ (FIG. 2H).

[3] = biological target: T2, GPR37 (Homo sapiens, UniProt O15354); assay: Ca2+ imaging (Fura-2AM) in HEK293 cells transfected with human GPR37 cDNA; format: cell-based; conditions: for effect on NPD1-induced iCa2+ increase: NPD1 30 nM, PTX 1 μg/mL 16 h before, thapsigargin 1 μM 3 min, EGTA 10 mM 3 min; for intracellular Ca2+ (iCa2+) increase: 3 min, GPR37-expressing HEK293 cells
T2 construct: host or cells: HEK293 flip-in cells
T2 sequence (O15354 27-613): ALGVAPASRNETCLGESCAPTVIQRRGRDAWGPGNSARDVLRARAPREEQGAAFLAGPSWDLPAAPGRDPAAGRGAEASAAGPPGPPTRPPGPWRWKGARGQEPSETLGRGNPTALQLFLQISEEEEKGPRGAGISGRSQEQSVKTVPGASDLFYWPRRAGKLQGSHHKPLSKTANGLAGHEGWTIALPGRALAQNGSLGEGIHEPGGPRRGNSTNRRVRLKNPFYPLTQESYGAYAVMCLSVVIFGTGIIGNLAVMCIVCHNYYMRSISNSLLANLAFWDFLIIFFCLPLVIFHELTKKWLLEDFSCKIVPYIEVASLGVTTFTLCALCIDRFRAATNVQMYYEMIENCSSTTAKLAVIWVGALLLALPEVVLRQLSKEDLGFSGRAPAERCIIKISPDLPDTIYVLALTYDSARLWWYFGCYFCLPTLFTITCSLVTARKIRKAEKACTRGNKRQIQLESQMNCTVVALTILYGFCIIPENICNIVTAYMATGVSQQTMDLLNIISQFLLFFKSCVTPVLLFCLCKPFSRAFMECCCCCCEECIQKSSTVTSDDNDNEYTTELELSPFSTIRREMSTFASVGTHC
Experimental: (§4) HEK cell culture and transfection. HEK293 flip-in cell line was purchased from Duke Cell Culture Facility. Cells were cultured in high glucose (4.5 g/L) Dulbecco's Modified Eagle's Medium containing 10% (v/v) fetal bovine serum (Gibco). Transfection (2 μg cDNA) was performed with Lonza electroporation (Lonza) at 70% confluency and the transfected cells were cultured in the same growth medium for 48 h before use. The hGPR37-V5 pLenti304 plasmids were obtained from DNASU (Tempe, AZ), and hGPR32, hChemR23 and hALX pcDNA3 plasmids were provided by Dr. Serhan from Harvard Medical School, Boston.
as §2
In order to investigate how GPR37 regulates intracellular signaling, we conducted Ca^2+ imaging in HEK293 cells that overexpress GPR37. […] Thus, we hypothesized TX14 and SPM may activate the same receptors and elicit similar intracellular responses. We transfected HEK293 cells with human GPR37 cDNA, loaded these cells with Ca^2+ dye Fura-2AM, and stimulated them with TX14 and various SPMs, using ionomycin (2 μM) as a positive control for Ca^2+ influx (FIG. 2A, FIG. 2B, FIG. 2C).

[4] = biological target: T3, GPR32 (Homo sapiens, UniProt O75388); assay: Ca2+ imaging (Fura-2AM) in HEK293 cells transfected with GPR32 cDNA; format: cell-based; conditions: 1 μM; HEK293 cells expressing GPR32
T3 construct: host or cells: HEK293 flip-in cells
Text: (§5) FIG. 10A-FIG. 10C. Characterization of intracellular Ca^2+ changes in HEK293 cells expressing ChemR23, GPR32, and ALX. Ca^2+ imaging with Fura-2AM indicator showing iCa^2+ levels in HEK293 cells transfected with ChemR23 (FIG. 10A), GPR32 (FIG. 10B), and ALX (FIG. 10C) cDNAs. Note that NPD1 fails to elicit iCa^2+ increase in HEK293 cells expressing ChemR23, GPR32, and ALX. […] ATP is included as a positive control. *P<0.05, compared with baseline n=44˜97 cells from 3 cultures. All the data are expressed as mean±s.e.m.
as §4
as §2, with “Values from each of the experiments were normalized to the baseline ratio of 340/380 nm.” left out

[5] = biological target: T4, ChemR23 (Homo sapiens, UniProt Q99788); assay: Ca2+ imaging (Fura-2AM) in HEK293 cells transfected with ChemR23 cDNA; format: cell-based; conditions: 1 μM; HEK293 cells expressing ChemR23
T4 construct: host or cells: HEK293 flip-in cells
T4 sequence (Q99788 1-373): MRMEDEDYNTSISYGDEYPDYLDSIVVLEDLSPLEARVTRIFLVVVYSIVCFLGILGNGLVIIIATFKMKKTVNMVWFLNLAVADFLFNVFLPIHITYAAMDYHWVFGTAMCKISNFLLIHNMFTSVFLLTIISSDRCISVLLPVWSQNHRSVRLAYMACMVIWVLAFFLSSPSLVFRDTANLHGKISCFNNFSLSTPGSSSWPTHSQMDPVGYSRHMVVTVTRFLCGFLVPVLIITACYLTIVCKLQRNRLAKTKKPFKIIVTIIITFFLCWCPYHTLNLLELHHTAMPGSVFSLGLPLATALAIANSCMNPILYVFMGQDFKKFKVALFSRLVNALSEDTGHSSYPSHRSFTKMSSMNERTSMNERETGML
Text: as §5, §4
as §2, with “Values from each of the experiments were normalized to the baseline ratio of 340/380 nm.” left out

[6] = biological target: T5, ALX (Homo sapiens, UniProt P25090); assay: Ca2+ imaging (Fura-2AM) in HEK293 cells transfected with ALX cDNA; format: cell-based; conditions: HEK293 cells expressing ALX
T5 construct: host or cells: HEK293 flip-in cells
T5 sequence (P25090 1-351): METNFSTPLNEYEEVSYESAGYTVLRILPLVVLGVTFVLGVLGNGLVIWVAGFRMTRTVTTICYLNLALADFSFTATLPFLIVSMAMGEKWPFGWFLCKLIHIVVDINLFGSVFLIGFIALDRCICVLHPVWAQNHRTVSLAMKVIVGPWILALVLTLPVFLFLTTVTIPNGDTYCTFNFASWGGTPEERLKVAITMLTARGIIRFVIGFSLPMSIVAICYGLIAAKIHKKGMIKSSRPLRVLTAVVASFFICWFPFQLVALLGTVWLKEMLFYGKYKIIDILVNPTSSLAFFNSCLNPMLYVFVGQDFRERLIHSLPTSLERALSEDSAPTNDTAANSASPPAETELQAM
Text: as §5, §4, §2
Several SPM receptors have been identified such as ChemR23 for RvE1, GPR32 for RvD1, and ALX for lipoxin A. We transfected human cDNAs of ChemR23, GPR32, and ALX in HEK293 cells and checked Ca^2+ responses following the treatment of each SPM.

[7] = system: GPR37; assay: Ca2+ imaging (Fluo-4AM) in peritoneal macrophages (pMΦ) from WT and Gpr37−/− mice; format: cell-based, mouse; conditions: GPR37-deficient pMΦ vs WT
Experimental: as §1, §2, §3

[8] = LY294002 50 μM, U0126 10 μM, PTX 1 μg/mL, BAPTA-AM 10 μM

T3 sequence (O75388 whole entry): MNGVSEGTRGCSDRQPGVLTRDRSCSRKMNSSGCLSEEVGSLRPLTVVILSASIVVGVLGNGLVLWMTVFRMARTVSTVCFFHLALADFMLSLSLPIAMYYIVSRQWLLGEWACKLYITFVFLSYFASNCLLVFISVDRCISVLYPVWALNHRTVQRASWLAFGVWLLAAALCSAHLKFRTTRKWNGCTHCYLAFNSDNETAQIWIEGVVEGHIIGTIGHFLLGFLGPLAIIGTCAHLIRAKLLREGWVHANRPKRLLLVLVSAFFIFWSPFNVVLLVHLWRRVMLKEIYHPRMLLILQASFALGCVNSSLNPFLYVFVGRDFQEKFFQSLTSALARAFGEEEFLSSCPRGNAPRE

Molecule: pertussis toxin
- effect on NPD1-induced phagocytosis [1, 8]: inhibited
- effect on NPD1-triggered iCa2+ increase [2]: blocked
- effect on NPD1-induced iCa2+ increase [3]: completely blocked

Molecule: CC/C=C\C/C=C\C/C=C\C/C=C\C/C=C\CCCC(=O)O [EPA]
- Ca2+ response [4]: fail to evoke Ca^2+ responses
- Ca2+ response [5]: fail to evoke Ca^2+ responses
- Ca2+ response ([6]; 1 μM): fail to evoke Ca^2+ responses
- intracellular Ca2+ (iCa2+) increase ([3]; 1 μM): Neither did the precursors of these SPMs (DHA and EPA), at a much higher concentration (1 μM), evoked calcium responses

Molecule: N#CC(=C(/N)Sc1ccccc1N)/C(C#N)=C(\N)Sc1ccccc1N [U0126]
- effect on NPD1-induced phagocytosis [1]: inhibited

Molecule: C/C=C(/C)C(=O)O[C@H]1C(C)=C2[C@H]([C@@H]1OC(=O)CCCCCCC)[C@@](C)(OC(C)=O)C[C@H](OC(=O)CCC)[C@@]1(O)[C@H]2OC(=O)[C@@]1(C)O [thapsigargin]
- effect on NPD1-induced iCa2+ increase [3]: inhibited

Molecule: C[C@H](CCC(=O)O)C[C@H](C)C[C@H](C)C(=O)/C=C(\O)[C@H](C)C[C@H](C)C/C=C/[C@@H](C)[C@@H](O)[C@@H](C)[C@@H](O)C[C@@H]1CC[C@@](C)([C@H]2CC[C@@](C)([C@@H](C)O)O2)O1 [ionomycin]
- phagocytosis ([1]; 2 μM, both WT and Gpr37 KO mice): markedly increased phagocytosis

Molecule: O=C(O)CN(CCOCCOCCN(CC(=O)O)CC(=O)O)CC(=O)O [EGTA]
- effect on NPD1-induced iCa2+ increase [3]: inhibited

Molecule: CC(=O)OCOC(=O)CN(CC(=O)OCOC(C)=O)c1ccccc1OCCOc1ccccc1N(CC(=O)OCOC(C)=O)CC(=O)OCOC(C)=O [BAPTA-AM]
- effect on baseline phagocytosis ([1]; BAPTA-AM 10 μM): blocked
- effect on NPD1-induced phagocytosis [1, 8]: blocked
- effect on NPD1-induced iCa2+ increase [3]: inhibited

Molecule: CC/C=C\C[C@H](O)[C@H](O)/C=C/C=C/C=C\C=C\[C@@H](O)C/C=C\CCC(=O)O [RvD2]
- intracellular Ca2+ (iCa2+) increase ([3]; 100 nM): failed to increase iCa^2+

Molecule: Annexin 1: SPM ligand for ALX, from Anaspec (AMVSEFLKQAWFIENEEQEYVQTVK)
- Ca2+ response ([6]; 100 nM): fail to evoke Ca^2+ responses

Molecule: Nc1ncnc2c1ncn2[C@@H]1O[C@H](COP(=O)(O)OP(=O)(O)OP(=O)(O)O)[C@@H](O)[C@H]1O [ATP]
- ATP-evoked iCa2+ increase [7]: not altered

Molecule: CCCCC[C@H](O)/C=C/C=C\C=C\C=C\[C@@H](O)[C@@H](O)CCCC(=O)O [lipoxin A1]
- iCa2+ increase / Ca2+ response [6]: failed to evoke Ca^2+ responses
- intracellular Ca2+ (iCa2+) increase ([3]; 100 nM): failed to increase iCa^2+
